According to the supplement of paper PMC11061612:

Experiments:
Lapatinib = compound: CS(=O)(=O)CCNCc1ccc(-c2ccc3ncnc(Nc4ccc(OCc5cccc(F)c5)c(Cl)c4)c3c2)o1 [Lapatinib]; conditions: max 10 µM
Method in brief: (§1)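 Viability was measured with CellTiter-Glo 2.0 luminescence after 72 hours of dosing at a final DMSO of typically 0.2%, and scaled between blank-well and DMSO-well means. Beforehand, cancer cell lines sat 24 hours at 37°C and 5% CO2 in 1536-well plates in 7.5 μl DMEM/F12 or RPMI with 10% FBS. A non-linear mixed effects model fitted two-parameter logistic curves to the dose responses. The single-agent IC50 comes from these fits.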

AZD8186 = compound: C[C@@H](Nc1cc(F)cc(F)c1)c1cc(C(=O)N(C)C)cc2c(=O)cc(N3CCOCC3)oc12 [AZD8186]; conditions: max 3 µM
Method in brief: as §1

AZD4320 = compound: CN(CC[C@H](CSC1=CC=CC=C1)NC2=C(C=C(C=C2)S(=O)(=O)NC(=O)C3=CC=C(C=C3)N4CCC(CC4)[C@H](C5=CC=CC=C5C6=CC=C(C=C6)Cl)O)S(=O)(=O)C(F)(F)F)CCO [AZD4320]; conditions: max 1 µM
Method in brief: as §1

Olaparib = compound: O=C(c1cc(Cc2n[nH]c(=O)c3ccccc23)ccc1F)N1CCN(C(=O)C2CC2)CC1 [Olaparib]; conditions: max 10 µM
Method in brief: as §1

SN-38 = compound: CCc1c2c(nc3ccc(O)cc13)-c1cc3c(c(=O)n1C2)COC(=O)[C@]3(O)CC [SN-38]; conditions: max 0.3 µM
Method in brief: as §1

SG3199 = compound: CC1=CN2[C@@H](C1)C=NC3=CC(=C(C=C3C2=O)OC)OCCCCCOC4=C(C=C5C(=C4)N=C[C@@H]6CC(=CN6C5=O)C)OC [SG3199]; conditions: max 0.001 µM
Method in brief: as §1

Taselisib = compound: Cc1nc(-c2cn3c(n2)-c2ccc(-c4cnn(C(C)(C)C(N)=O)c4)cc2OCC3)n(C(C)C)n1 [Taselisib]; conditions: max 10 µM
Method in brief: as §1

Trametinib = compound: CC(=O)Nc1cccc(-n2c(=O)n(C3CC3)c(=O)c3c(Nc4ccc(I)cc4F)n(C)c(=O)c(C)c32)c1 [Trametinib]; conditions: max 1 µM
Method in brief: as §1

Capivasertib = compound: C1CN(CCC1(C(=O)N[C@@H](CCO)C2=CC=C(C=C2)Cl)N)C3=NC=NC4=C3C=CN4 [Capivasertib]; conditions: max 10 µM
Method in brief: as §1

Savolitinib = compound: C[C@@H](c1ccc2nccn2c1)n1nnc2ncc(-c3cnn(C)c3)nc21 [Savolitinib]; conditions: max 1 µM
Method in brief: as §1

Gefitinib = compound: COc1cc2ncnc(Nc3ccc(F)c(Cl)c3)c2cc1OCCCN1CCOCC1 [Gefitinib]; conditions: max 10 µM
Method in brief: as §1

Selumetinib = compound: Cn1cnc2c(F)c(Nc3ccc(Br)cc3Cl)c(C(=O)NOCCO)cc21 [Selumetinib]; conditions: max 10 µM
Method in brief: as §1

AZD0156 = compound: CN(C)CCCOc1ccc(-c2ccc3ncc4c(c3c2)n(C2CCOCC2)c(=O)n4C)cn1 [AZD0156]; conditions: max 3 µM
Method in brief: as §1

Doxorubicin = compound: COc1cccc2c1C(=O)c1c(O)c3c(c(O)c1C2=O)C[C@@](O)(C(=O)CO)C[C@@H]3O[C@H]1C[C@H](N)[C@H](O)[C@H](C)O1 [Doxorubicin]; conditions: max 1 µM
Method in brief: as §1

Dasatinib = compound: CC1=C(C(=CC=C1)Cl)NC(=O)C2=CN=C(S2)NC3=CC(=NC(=N3)C)N4CCN(CC4)CCO [Dasatinib]; conditions: max 2 µM
Method in brief: as §1

AZD1390 = compound: CC(C)n1c(=O)n(C)c2cnc3cc(F)c(-c4ccc(OCCCN5CCCCC5)nc4)cc3c21 [AZD1390]; conditions: max 0.3 µM
Method in brief: as §1

Palbociclib = compound: CC(=O)c1c(C)c2cnc(Nc3ccc(N4CCNCC4)cn3)nc2n(C2CCCC2)c1=O [Palbociclib]; conditions: max 10 µM
Method in brief: as §1

Prexasertib = compound: COc1cccc(OCCCN)c1-c1cc(Nc2cnc(C#N)cn2)n[nH]1 [Prexasertib]; conditions: max 1 µM
Method in brief: as §1

Crizotinib = compound: C[C@@H](Oc1cc(-c2cnn(C3CCNCC3)c2)cnc1N)c1c(Cl)ccc(F)c1Cl [Crizotinib]; conditions: max 10 µM
Method in brief: as §1

Venetoclax = compound: CC1(C)CCC(CN2CCN(c3ccc(C(=O)NS(=O)(=O)c4ccc(NCC5CCOCC5)c([N+](=O)[O-])c4)c(Oc4cnc5[nH]ccc5c4)c3)CC2)=C(c2ccc(Cl)cc2)C1 [Venetoclax]; conditions: max 1 µM
Method in brief: as §1

AZD2811 = compound: CCN(CCO)CCCOc1ccc2c(Nc3cc(CC(=O)Nc4cccc(F)c4)[nH]n3)ncnc2c1 [AZD2811]; conditions: max 1 µM
Method in brief: as §1

AZD6738 = compound: C[C@@H]1COCCN1C2=NC(=NC(=C2)C3(CC3)[S@](=N)(=O)C)C4=C5C=CNC5=NC=C4 [AZD6738]; conditions: max 10 µM
Method in brief: as §1

AZD5991 = compound: Cc1c2c(nn1C)CSCc1cc(n(C)n1)CSc1cc(c3ccccc3c1)OCCCc1c(C(=O)O)n(C)c3c-2c(Cl)ccc13 [AZD5991]; conditions: max 1 µM
Method in brief: as §1

MK-2206 = compound: NC1(c2ccc(-c3nc4ccn5c(=O)[nH]nc5c4cc3-c3ccccc3)cc2)CCC1 [MK-2206]; conditions: max 10 µM
Method in brief: as §1

AZD1775 = compound: C=CCn1c(=O)c2cnc(Nc3ccc(N4CCN(C)CC4)cc3)nc2n1-c1cccc(C(C)(C)O)n1 [AZD1775]; conditions: max 3 µM
Method in brief: as §1

AZD5153 = compound: COc1nnc2ccc(N3CCC(c4ccc(OCCN5CCN(C)C(=O)[C@H]5C)cc4)CC3)nn12 [AZD5153]; conditions: max 1 µM
Method in brief: as §1

Alisertib = compound: COc1cc(Nc2ncc3c(n2)-c2ccc(Cl)cc2C(c2c(F)cccc2OC)=NC3)ccc1C(=O)O [Alisertib]; conditions: max 10 µM
Method in brief: as §1

AZD7648 = compound: Cc1cc2ncnn2cc1Nc1ncc2c(n1)n(C1CCOCC1)c(=O)n2C [AZD7648]; conditions: max 10 µM
Method in brief: as §1

Row | Cell Line | IC50, cell viability 72 h (Lapatinib) [µM] | IC50, cell viability 72 h (AZD8186) [µM] | IC50, cell viability 72 h (AZD4320) [µM] | IC50, cell viability 72 h (Olaparib) [µM] | IC50, cell viability 72 h (SN-38) [µM] | IC50, cell viability 72 h (SG3199) [µM] | IC50, cell viability 72 h (Taselisib) [µM] | IC50, cell viability 72 h (Trametinib) [µM] | IC50, cell viability 72 h (Capivasertib) [µM] | IC50, cell viability 72 h (Savolitinib) [µM] | IC50, cell viability 72 h (Gefitinib) [µM] | IC50, cell viability 72 h (Selumetinib) [µM] | IC50, cell viability 72 h (AZD0156) [µM] | IC50, cell viability 72 h (Doxorubicin) [µM] | IC50, cell viability 72 h (Dasatinib) [µM] | IC50, cell viability 72 h (AZD1390) [µM] | IC50, cell viability 72 h (Palbociclib) [µM] | IC50, cell viability 72 h (Prexasertib) [µM] | IC50, cell viability 72 h (Crizotinib) [µM] | IC50, cell viability 72 h (Venetoclax) [µM] | IC50, cell viability 72 h (AZD2811) [µM] | IC50, cell viability 72 h (AZD6738) [µM] | IC50, cell viability 72 h (AZD5991) [µM] | IC50, cell viability 72 h (MK-2206) [µM] | IC50, cell viability 72 h (AZD1775) [µM] | IC50, cell viability 72 h (AZD5153) [µM] | IC50, cell viability 72 h (Alisertib) [µM] | IC50, cell viability 72 h (AZD7648) [µM]
1 | ASH-3 (Thyroid Gland Carcinoma) | > 10 | > 3 | > 1 | > 10 | 0.0288 | > 0.001 | 6.86 | > 1 | > 10 | > 1 | > 10 | > 10 | > 3 | 0.688 | 1.24 | > 0.3 | > 10 | 0.569 | > 10 | > 1 | > 1 | > 10 | > 1 | > 10 | > 3 | 0.283 | > 10 | > 10
2 | GOTO (Neuroblastoma) | 6.07 | > 3 | > 1 | > 10 | 0.00391 | > 0.001 | 4.55 | > 1 | > 10 | > 1 | > 10 | > 10 | > 3 | 0.193 | > 2 | > 0.3 | 7.01 | 0.0118 | 1.64 | > 1 | 0.332 | 0.592 | 0.398 |  | 0.65 | 0.0917 | 0.272 | > 10
3 | HC-1 (Other Blood Carcinomas) | > 10 | > 3 | 0.793 | > 10 | 0.00453 | > 0.001 | 2.64 | > 1 | > 10 | > 1 | > 10 | > 10 | > 3 | 0.151 | 1.68 | > 0.3 | 9.65 | 0.00696 | > 10 | > 1 | 0.884 | 4.32 | > 1 |  | 0.187 | 0.858 | 0.752 | > 10
4 | HuP-T3 (Pancreatic Carcinoma) | > 10 | > 3 | > 1 | > 10 | 0.235 | > 0.001 | > 10 | 0.567 | > 10 | > 1 | > 10 | > 10 | > 3 | > 1 | 0.791 | > 0.3 | > 10 | 0.166 | > 10 | > 1 | > 1 | > 10 | > 1 |  | 1.61 | > 1 | > 10 | > 10
5 | IMR-5 (Neuroblastoma) | > 10 | > 3 | 0.546 | > 10 | 0.0019 | > 0.001 | > 10 | > 1 | > 10 | > 1 | > 10 | > 10 | > 3 | 0.0649 | > 2 | > 0.3 | 6.63 | 0.0136 | 2.21 | > 1 | 0.0182 | 2.19 | 0.107 |  | 0.498 | 0.0696 | 0.0183 | > 10
6 | KLE (Endometrial Carcinoma) | > 10 | > 3 | > 1 | > 10 | > 0.3 | > 0.001 | 2.43 | > 1 | > 10 | > 1 | > 10 | > 10 | > 3 | > 1 | 0.186 | > 0.3 | > 10 | > 1 | > 10 | > 1 | > 1 | > 10 | > 1 |  | 1.8 | 0.315 | 9.07 | > 10
7 | KP-2 (Pancreatic Carcinoma) | > 10 | > 3 | 0.238 | > 10 | > 0.3 | > 0.001 | > 10 | 0.778 | > 10 | > 1 | > 10 | 8.02 | > 3 | > 1 | > 2 | > 0.3 | > 10 | 0.867 | > 10 | > 1 | > 1 | > 10 | > 1 |  | > 3 | > 1 | > 10 | > 10
8 | KU-19-19 (Bladder Carcinoma) | > 10 | > 3 | > 1 | > 10 | 0.0416 | > 0.001 | > 10 | 0.00644 | > 10 | > 1 | > 10 | 0.678 | > 3 | 0.447 | 0.711 | > 0.3 | > 10 | 0.0361 | > 10 | > 1 | > 1 | 2.16 | > 1 | > 10 | 0.462 | 0.117 | 5.63 | > 10
